Data on 37 compounds can be found in US9549932B2, “2-(morpholin-4-yl)-1,7-naphthyridines” (BAYER PHARMA AKTIENGESELLSCHAFT, priority 2014, dated 2017).

The test concerns the target full-length human ATR protein (Homo sapiens (Human), UniProt Q13535). Kind of test: Binding assay ATR (TR-FRET tracer displacement). The note with it: tracer A, TR-FRET; read-out: ATR binding (tracer A) IC50. In a few lines:
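Full-length human GST-ATR co-purified with ATRIP, pre-complexed 30 min at 22 °C with anti-GST-Tb antibody, then pre-bound with compound 10 min. Tracer A or B added (2 µl of 100 nM solution), 30 min at 22 °C.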
On the technique in general: Time-resolved FRET reads energy transfer from a long-lived donor to a nearby acceptor.

Structures are written as SMILES.

full-length human ATR protein, sequence (Q13535 other isoform, or with tags, fused parts or gaps): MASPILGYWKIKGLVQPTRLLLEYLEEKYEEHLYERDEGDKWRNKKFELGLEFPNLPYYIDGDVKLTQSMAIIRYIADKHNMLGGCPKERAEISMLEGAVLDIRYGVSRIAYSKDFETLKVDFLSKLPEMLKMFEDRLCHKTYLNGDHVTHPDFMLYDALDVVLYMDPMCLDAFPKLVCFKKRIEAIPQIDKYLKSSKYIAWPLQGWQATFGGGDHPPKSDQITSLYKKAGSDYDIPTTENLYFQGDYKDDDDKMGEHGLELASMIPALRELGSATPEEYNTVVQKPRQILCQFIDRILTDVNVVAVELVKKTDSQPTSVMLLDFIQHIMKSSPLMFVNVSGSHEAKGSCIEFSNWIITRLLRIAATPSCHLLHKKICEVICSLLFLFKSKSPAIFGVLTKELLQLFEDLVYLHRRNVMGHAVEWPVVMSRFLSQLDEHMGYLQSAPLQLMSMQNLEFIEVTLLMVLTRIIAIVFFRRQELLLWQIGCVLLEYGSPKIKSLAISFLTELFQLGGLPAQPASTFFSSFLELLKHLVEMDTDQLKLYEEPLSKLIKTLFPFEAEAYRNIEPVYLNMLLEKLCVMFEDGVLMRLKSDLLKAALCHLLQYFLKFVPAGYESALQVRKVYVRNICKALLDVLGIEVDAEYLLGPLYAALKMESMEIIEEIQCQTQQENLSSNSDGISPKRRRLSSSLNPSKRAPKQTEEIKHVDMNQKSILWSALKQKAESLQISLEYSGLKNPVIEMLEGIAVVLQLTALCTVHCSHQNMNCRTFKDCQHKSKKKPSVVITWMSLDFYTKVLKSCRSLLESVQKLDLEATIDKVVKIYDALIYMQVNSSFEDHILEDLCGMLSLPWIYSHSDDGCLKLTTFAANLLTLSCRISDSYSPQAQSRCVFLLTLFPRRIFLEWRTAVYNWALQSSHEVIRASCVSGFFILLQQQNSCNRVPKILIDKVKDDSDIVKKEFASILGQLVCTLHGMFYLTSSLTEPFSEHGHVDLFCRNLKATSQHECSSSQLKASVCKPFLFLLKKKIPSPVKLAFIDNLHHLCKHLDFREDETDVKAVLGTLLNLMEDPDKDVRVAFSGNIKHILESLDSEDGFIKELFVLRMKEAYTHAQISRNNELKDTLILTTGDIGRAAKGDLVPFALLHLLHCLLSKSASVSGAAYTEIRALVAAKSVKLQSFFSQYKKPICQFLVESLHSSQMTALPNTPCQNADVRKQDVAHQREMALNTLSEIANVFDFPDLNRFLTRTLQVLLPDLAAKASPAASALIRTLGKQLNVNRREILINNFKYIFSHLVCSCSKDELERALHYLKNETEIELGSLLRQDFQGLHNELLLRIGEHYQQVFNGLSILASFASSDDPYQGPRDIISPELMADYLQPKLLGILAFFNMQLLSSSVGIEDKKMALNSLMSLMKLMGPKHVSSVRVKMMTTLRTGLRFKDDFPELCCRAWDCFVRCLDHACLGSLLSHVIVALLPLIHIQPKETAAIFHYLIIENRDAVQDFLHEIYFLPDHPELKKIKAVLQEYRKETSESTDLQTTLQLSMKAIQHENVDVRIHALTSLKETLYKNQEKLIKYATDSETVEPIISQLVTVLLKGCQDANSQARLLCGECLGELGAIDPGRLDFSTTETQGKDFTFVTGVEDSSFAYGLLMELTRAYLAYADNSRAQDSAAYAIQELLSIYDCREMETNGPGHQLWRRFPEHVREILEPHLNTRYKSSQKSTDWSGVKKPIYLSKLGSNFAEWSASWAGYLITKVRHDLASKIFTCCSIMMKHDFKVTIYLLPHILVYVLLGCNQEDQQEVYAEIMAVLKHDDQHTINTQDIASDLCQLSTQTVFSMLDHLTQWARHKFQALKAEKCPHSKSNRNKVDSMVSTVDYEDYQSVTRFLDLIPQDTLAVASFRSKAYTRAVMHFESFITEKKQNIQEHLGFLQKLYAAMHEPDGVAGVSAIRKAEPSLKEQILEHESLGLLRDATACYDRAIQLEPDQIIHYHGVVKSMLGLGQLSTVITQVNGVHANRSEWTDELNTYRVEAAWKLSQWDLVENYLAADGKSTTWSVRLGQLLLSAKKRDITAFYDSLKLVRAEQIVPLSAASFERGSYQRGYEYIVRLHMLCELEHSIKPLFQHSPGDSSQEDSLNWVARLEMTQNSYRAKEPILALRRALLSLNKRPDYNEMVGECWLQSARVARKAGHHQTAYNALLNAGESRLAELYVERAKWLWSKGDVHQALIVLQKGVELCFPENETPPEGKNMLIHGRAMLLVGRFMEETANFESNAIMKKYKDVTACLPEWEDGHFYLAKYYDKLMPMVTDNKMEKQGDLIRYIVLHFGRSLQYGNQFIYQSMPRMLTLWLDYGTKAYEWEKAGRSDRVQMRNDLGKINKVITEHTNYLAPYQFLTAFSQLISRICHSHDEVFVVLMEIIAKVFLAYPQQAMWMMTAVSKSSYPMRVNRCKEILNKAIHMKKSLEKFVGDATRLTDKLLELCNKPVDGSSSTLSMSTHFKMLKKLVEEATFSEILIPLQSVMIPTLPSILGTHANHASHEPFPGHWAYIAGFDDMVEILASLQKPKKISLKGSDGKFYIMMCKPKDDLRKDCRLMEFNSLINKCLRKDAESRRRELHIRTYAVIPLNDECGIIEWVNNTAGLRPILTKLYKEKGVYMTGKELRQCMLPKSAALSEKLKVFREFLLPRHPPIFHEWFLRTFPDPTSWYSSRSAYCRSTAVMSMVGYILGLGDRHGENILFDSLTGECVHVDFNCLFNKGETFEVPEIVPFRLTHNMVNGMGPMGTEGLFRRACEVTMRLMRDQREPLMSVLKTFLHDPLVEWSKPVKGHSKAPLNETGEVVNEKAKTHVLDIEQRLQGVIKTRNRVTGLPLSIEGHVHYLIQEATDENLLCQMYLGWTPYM
full-length human ATR protein, sequence (Q8WXE1 other isoform, or with tags, fused parts or gaps partner): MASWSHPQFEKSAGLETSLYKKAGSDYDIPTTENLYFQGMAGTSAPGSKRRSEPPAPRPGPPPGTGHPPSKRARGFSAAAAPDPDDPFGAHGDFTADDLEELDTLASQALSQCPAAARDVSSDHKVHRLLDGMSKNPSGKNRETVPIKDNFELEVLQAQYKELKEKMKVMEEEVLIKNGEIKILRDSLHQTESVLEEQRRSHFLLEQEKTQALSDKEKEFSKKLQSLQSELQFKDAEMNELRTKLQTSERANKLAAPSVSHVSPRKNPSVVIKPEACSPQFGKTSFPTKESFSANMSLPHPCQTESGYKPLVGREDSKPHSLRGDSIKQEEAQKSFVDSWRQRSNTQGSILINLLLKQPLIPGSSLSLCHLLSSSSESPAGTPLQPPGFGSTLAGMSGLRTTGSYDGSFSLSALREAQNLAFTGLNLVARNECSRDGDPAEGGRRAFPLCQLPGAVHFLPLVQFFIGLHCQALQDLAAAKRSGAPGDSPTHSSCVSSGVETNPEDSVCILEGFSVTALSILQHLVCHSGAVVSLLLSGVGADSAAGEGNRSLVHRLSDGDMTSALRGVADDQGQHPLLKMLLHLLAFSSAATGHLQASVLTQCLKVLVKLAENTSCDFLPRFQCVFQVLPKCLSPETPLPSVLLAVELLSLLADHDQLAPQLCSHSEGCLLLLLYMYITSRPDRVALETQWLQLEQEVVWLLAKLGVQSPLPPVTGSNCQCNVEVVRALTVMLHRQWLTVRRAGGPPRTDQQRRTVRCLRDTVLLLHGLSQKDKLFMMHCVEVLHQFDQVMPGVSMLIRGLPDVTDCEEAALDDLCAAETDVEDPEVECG

For `O=S(=O)(c1ccccc1)n1c(-c2cc(N3CCOCC3)nc3c(-c4ccn[nH]4)nccc23)cc2ccccc21` [Example 355, 2-(morpholin-4-yl)-4-[1-(phenylsulfonyl)-1H-indol-2-yl]-8-(1H-pyrazol-5-yl)-1,7-naphthyridine], the half-maximal inhibitory concentration (IC50) – broadly, the concentration needed to halve the response being measured – worked out at 484 nM. To `OCc1ccc(-c2cc(N3CCOCC3)nc3c(-c4ccn[nH]4)nccc23)s1` [Example 358, {5-[2-(morpholin-4-yl)-8-(1H-pyrazol-5-yl)-1,7-naphthyridin-4-yl]thiophen-2-yl}methanol] belongs 46.4 nM. Turning to `Fc1ncccc1-c1cc(N2CCOCC2)nc2c(-c3ccn[nH]3)nccc12` [Example 359, 4-(2-fluoropyridin-3-yl)-2-(morpholin-4-yl)-8-(1H-pyrazol-5-yl)-1,7-naphthyridine], the IC50 was determined as 85.5 nM. As to `Fc1ccc(-c2cc(N3CCOCC3)nc3c(-c4ccn[nH]4)nccc23)cn1` [Example 360, 4-(6-fluoropyridin-3-yl)-2-(morpholin-4-yl)-8-(1H-pyrazol-5-yl)-1,7-naphthyridine], the IC50 came to 93.8 nM. To `COc1ncccc1-c1cc(N2CCOCC2)nc2c(-c3ccn[nH]3)nccc12` [Example 362, 4-(2-methoxypyridin-3-yl)-2-(morpholin-4-yl)-8-(1H-pyrazol-5-yl)-1,7-naphthyridine] belongs 295 nM. `c1ccc2c(-c3cc(N4CCOCC4)nc4c(-c5ccn[nH]5)nccc34)cncc2c1` [Example 363, 4-(isoquinolin-4-yl)-2-(morpholin-4-yl)-8-(1H-pyrazol-5-yl)-1,7-naphthyridine]: the IC50 was determined as 191 nM.

As for `Fc1cnccc1-c1cc(N2CCOCC2)nc2c(-c3ccn[nH]3)nccc12` [Example 365, 4-(3-fluoropyridin-4-yl)-2-(morpholin-4-yl)-8-(1H-pyrazol-5-yl)-1,7-naphthyridine], the IC50 amounted to 103 nM. To `Fc1ccc(-c2cc(N3CCOCC3)nc3c(-c4ccn[nH]4)nccc23)c(F)n1` [Example 366, 4-(2,6-difluoropyridin-3-yl)-2-(morpholin-4-yl)-8-(1H-pyrazol-5-yl)-1,7-naphthyridine] belongs 52.1 nM; to `Cn1cc(-c2cc(N3CCOCC3)nc3c(-c4ccn[nH]4)nccc23)cn1` [Example 367, 4-(1-methyl-1H-pyrazol-4-yl)-2-(morpholin-4-yl)-8-(1H-pyrazol-5-yl)-1,7-naphthyridine], 215 nM.

Take `COc1ccc2c(c1)cc(-c1cc(N3CCOCC3)nc3c(-c4ccn[nH]4)nccc13)n2C(=O)OC(C)(C)C` [Example 368, tert-butyl 5-methoxy-2-[2-(morpholin-4-yl)-8-(1H-pyrazol-5-yl)-1,7-naphthyridin-4-yl]-1H-indole-1-carboxylate]: the IC50 is 3950 nM. To `c1cc(-c2nccc3c(-c4ccc(N5CCOCC5)nc4)cc(N4CCOCC4)nc23)[nH]n1` [Example 369, 2-(morpholin-4-yl)-4-[6-(morpholin-4-yl)pyridin-3-yl]-8-(1H-pyrazol-5-yl)-1,7-naphthyridine] belongs 115 nM. To `Cc1cscc1-c1cc(N2CCOCC2)nc2c(-c3ccn[nH]3)nccc12` [Example 370, 4-(4-methylthiophen-3-yl)-2-(morpholin-4-yl)-8-(1H-pyrazol-5-yl)-1,7-naphthyridine] belongs 35 nM; to `c1csc(-c2cc(N3CCOCC3)nc3c(-c4ccn[nH]4)nccc23)c1` [Example 371, 2-(morpholin-4-yl)-8-(1H-pyrazol-5-yl)-4-(thiophen-2-yl)-1,7-naphthyridine], 122 nM; to `c1cc(-c2nccc3c(-c4ccsc4)cc(N4CCOCC4)nc23)[nH]n1` [Example 372, 2-(morpholin-4-yl)-8-(1H-pyrazol-5-yl)-4-(thiophen-3-yl)-1,7-naphthyridine], 134 nM.

As to `Cc1ccsc1-c1cc(N2CCOCC2)nc2c(-c3ccn[nH]3)nccc12` [Example 373, 4-(3-methylthiophen-2-yl)-2-(morpholin-4-yl)-8-(1H-pyrazol-5-yl)-1,7-naphthyridine], the concentration for half-maximal inhibition (IC50) was 38.1 nM. With `COc1ccncc1-c1cc(N2CCOCC2)nc2c(-c3ccn[nH]3)nccc12` [Example 375, 4-(4-methoxypyridin-3-yl)-2-(morpholin-4-yl)-8-(1H-pyrazol-5-yl)-1,7-naphthyridine], the IC50 worked out at 894 nM.

For `Cc1ccc2c(c1)cc(-c1cc(N3CCOCC3)nc3c(-c4ccn[nH]4)nccc13)n2C(=O)OC(C)(C)C` [Example 377, tert-butyl 5-methyl-2-[2-(morpholin-4-yl)-8-(1H-pyrazol-5-yl)-1,7-naphthyridin-4-yl]-1H-indole-1-carboxylate], the IC50 amounted to 2990 nM. Take `Cc1noc(C)c1-c1cc(N2CCOCC2)nc2c(-c3ccn[nH]3)nccc12` [Example 379, 4-(3,5-dimethyl-1,2-oxazol-4-yl)-2-(morpholin-4-yl)-8-(1H-pyrazol-5-yl)-1,7-naphthyridine]: the IC50 worked out at 69.8 nM. Consider `c1cnc2c(-c3cc(N4CCOCC4)nc4c(-c5ccn[nH]5)nccc34)cccc2c1` [Example 380, 2-(morpholin-4-yl)-8-(1H-pyrazol-5-yl)-4-(quinolin-8-yl)-1,7-naphthyridine], for which the concentration for half-maximal inhibition (IC50) was determined as 1460 nM. `Cc1ccc(-c2cc(N3CCOCC3)nc3c(-c4ccn[nH]4)nccc23)s1` [Example 381, 4-(5-methylthiophen-2-yl)-2-(morpholin-4-yl)-8-(1H-pyrazol-5-yl)-1,7-naphthyridine]: the IC50 is 121 nM. Regarding `CCOc1ccc(-c2cc(N3CCOCC3)nc3c(-c4ccn[nH]4)nccc23)cn1` [Example 382, 4-(6-ethoxypyridin-3-yl)-2-(morpholin-4-yl)-8-(1H-pyrazol-5-yl)-1,7-naphthyridine], the IC50 was determined as 199 nM. Turning to `CCOc1ncccc1-c1cc(N2CCOCC2)nc2c(-c3ccn[nH]3)nccc12` [Example 383, 4-(2-ethoxypyridin-3-yl)-2-(morpholin-4-yl)-8-(1H-pyrazol-5-yl)-1,7-naphthyridine], the IC50 amounted to 239 nM. On to `c1cnc2ccc(-c3cc(N4CCOCC4)nc4c(-c5ccn[nH]5)nccc34)cc2c1` [Example 384, 2-(morpholin-4-yl)-8-(1H-pyrazol-5-yl)-4-(quinolin-6-yl)-1,7-naphthyridine], for which the IC50 is 89.2 nM. To `Nc1ccc(-c2cc(N3CCOCC3)nc3c(-c4ccn[nH]4)nccc23)cn1` [Example 386, 5-[2-(morpholin-4-yl)-8-(1H-pyrazol-5-yl)-1,7-naphthyridin-4-yl]pyridin-2-amine] belongs 173 nM; to `c1cc(-c2nccc3c(-c4cc[nH]n4)cc(N4CCOCC4)nc23)[nH]n1` [Example 387, 2-(morpholin-4-yl)-4-(1H-pyrazol-3-yl)-8-(1H-pyrazol-5-yl)-1,7-naphthyridine], 218 nM; to `Cc1ccc(-c2cc(N3CCOCC3)nc3c(-c4ccn[nH]4)nccc23)cn1` [Example 388, 4-(6-methylpyridin-3-yl)-2-(morpholin-4-yl)-8-(1H-pyrazol-5-yl)-1,7-naphthyridine], 79.1 nM. To `Cn1cccc1-c1cc(N2CCOCC2)nc2c(-c3ccn[nH]3)nccc12` [Example 389, 4-(1-methyl-1H-pyrrol-2-yl)-2-(morpholin-4-yl)-8-(1H-pyrazol-5-yl)-1,7-naphthyridine] belongs 26.6 nM; to `Oc1ccc(-c2cc(N3CCOCC3)nc3c(-c4ccn[nH]4)nccc23)cn1` [Example 390, 5-[2-(morpholin-4-yl)-8-(1H-pyrazol-5-yl)-1,7-naphthyridin-4-yl]pyridin-2-ol], 663 nM; to `Fc1cncc(-c2cc(N3CCOCC3)nc3c(-c4ccn[nH]4)nccc23)c1` [Example 394, 4-(5-fluoropyridin-3-yl)-2-(morpholin-4-yl)-8-(1H-pyrazol-5-yl)-1,7-naphthyridine], 119 nM. The result for `CSc1ncc(-c2cc(N3CCOCC3)nc3c(-c4ccn[nH]4)nccc23)cn1` [Example 395, 4-[2-(methylsulfanyl)pyrimidin-5-yl]-2-(morpholin-4-yl)-8-(1H-pyrazol-5-yl)-1,7-naphthyridine] reads 149 nM; that for `c1cc(-c2nccc3c(-c4cnc(NC5CC5)nc4)cc(N4CCOCC4)nc23)[nH]n1` [Example 396, N-cyclopropyl-5-[2-(morpholin-4-yl)-8-(1H-pyrazol-5-yl)-1,7-naphthyridin-4-yl]pyrimidin-2-amine], 174 nM; that for `c1cc(-c2cc(N3CCOCC3)nc3c(-c4ccn[nH]4)nccc23)c2ccncc2c1` [Example 397, 4-(isoquinolin-5-yl)-2-(morpholin-4-yl)-8-(1H-pyrazol-5-yl)-1,7-naphthyridine], 95.5 nM. For the compound `CNC(=O)c1ccc(-c2cc(N3CCOCC3)nc3c(-c4ccn[nH]4)nccc23)cn1` [Example 398, N-methyl-5-[2-(morpholin-4-yl)-8-(1H-pyrazol-5-yl)-1,7-naphthyridin-4-yl]pyridine-2-carboxamide], the 50% inhibitory concentration (IC50) worked out at 120 nM. The result for `CC(C)(C)NC(=O)c1cncc(-c2cc(N3CCOCC3)nc3c(-c4ccn[nH]4)nccc23)c1` [Example 399, N-tert-butyl-5-[2-(morpholin-4-yl)-8-(1H-pyrazol-5-yl)-1,7-naphthyridin-4-yl]pyridine-3-carboxamide] reads 618 nM; that for `CSc1cncc(-c2cc(N3CCOCC3)nc3c(-c4ccn[nH]4)nccc23)c1` [Example 400, 4-[5-(methylsulfanyl)pyridin-3-yl]-2-(morpholin-4-yl)-8-(1H-pyrazol-5-yl)-1,7-naphthyridine], 300 nM; that for `c1cc(-c2nccc3c(-c4ccnc5[nH]ccc45)cc(N4CCOCC4)nc23)[nH]n1` [Example 401, 2-(morpholin-4-yl)-8-(1H-pyrazol-5-yl)-4-(1H-pyrrolo[2,3-b]pyridin-4-yl)-1,7-naphthyridine], 87.5 nM. For the compound `Nc1ncccc1-c1cc(N2CCOCC2)nc2c(-c3ccn[nH]3)nccc12` [Example 402, 3-[2-(morpholin-4-yl)-8-(1H-pyrazol-5-yl)-1,7-naphthyridin-4-yl]pyridin-2-amine], the IC50 was found to be 299 nM.
